According to the supplement of paper PMC13386468:

Columns and labels:
Assay in all cases: IC50 for competition of protein binding to Kinobeads
Conditions in all cases: assay detail: Kinobeads competition in P. falciparum blood-stage lysate
UniProt C0H4U0 = target: UniProt C0H4U0
UniProt C0H4V6 = target: UniProt C0H4V6
UniProt C6KSV2 = target: UniProt C6KSV2
UniProt C6KT03 = target: UniProt C6KT03
UniProt C6KT82 = target: UniProt C6KT82
UniProt P27362 = target: UniProt P27362
UniProt P50250 = target: UniProt P50250
Chain of UniProt P50250 (P50250 whole entry): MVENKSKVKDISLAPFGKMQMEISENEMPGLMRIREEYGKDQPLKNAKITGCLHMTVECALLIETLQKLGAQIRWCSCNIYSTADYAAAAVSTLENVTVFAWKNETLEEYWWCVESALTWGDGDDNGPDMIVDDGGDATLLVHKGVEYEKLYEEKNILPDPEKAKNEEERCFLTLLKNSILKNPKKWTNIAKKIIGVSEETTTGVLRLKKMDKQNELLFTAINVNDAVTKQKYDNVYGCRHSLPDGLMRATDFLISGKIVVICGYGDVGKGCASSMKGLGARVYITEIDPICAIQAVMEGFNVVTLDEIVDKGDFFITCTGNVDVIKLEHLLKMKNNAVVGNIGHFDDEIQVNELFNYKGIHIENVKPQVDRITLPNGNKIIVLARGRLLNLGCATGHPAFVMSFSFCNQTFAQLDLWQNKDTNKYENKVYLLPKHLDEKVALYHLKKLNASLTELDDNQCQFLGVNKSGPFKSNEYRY

UniProt Q6ZMA8 = target: UniProt Q6ZMA8
UniProt Q7K6B1 = target: UniProt Q7K6B1
UniProt Q8I1R5 = target: UniProt Q8I1R5
UniProt Q8I1X5 = target: UniProt Q8I1X5
UniProt Q8I2B1 = target: UniProt Q8I2B1
UniProt Q8I2J3 = target: UniProt Q8I2J3
Chain of UniProt Q8I2J3 (Q8I2J3 whole entry): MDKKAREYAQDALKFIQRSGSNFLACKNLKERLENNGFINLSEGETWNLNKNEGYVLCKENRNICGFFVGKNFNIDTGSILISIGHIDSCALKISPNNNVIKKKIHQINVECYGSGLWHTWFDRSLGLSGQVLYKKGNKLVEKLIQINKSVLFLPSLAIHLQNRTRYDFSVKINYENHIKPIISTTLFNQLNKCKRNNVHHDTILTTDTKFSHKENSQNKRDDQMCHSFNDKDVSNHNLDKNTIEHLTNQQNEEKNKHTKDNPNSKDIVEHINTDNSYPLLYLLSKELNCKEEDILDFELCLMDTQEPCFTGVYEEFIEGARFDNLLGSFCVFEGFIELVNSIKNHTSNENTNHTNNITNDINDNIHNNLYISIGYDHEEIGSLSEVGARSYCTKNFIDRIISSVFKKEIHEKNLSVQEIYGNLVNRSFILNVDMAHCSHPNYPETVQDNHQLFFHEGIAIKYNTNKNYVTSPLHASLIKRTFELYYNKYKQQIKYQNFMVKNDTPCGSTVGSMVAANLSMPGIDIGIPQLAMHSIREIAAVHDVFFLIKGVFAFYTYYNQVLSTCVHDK

UniProt Q8I348 = target: UniProt Q8I348
UniProt Q8I447 = target: UniProt Q8I447
UniProt Q8I463 = target: UniProt Q8I463
UniProt Q8I4R5 = target: UniProt Q8I4R5
UniProt Q8I5Q6 = target: UniProt Q8I5Q6
UniProt Q8I6U4 = target: UniProt Q8I6U4
Chain of UniProt Q8I6U4 (Q8I6U4 whole entry): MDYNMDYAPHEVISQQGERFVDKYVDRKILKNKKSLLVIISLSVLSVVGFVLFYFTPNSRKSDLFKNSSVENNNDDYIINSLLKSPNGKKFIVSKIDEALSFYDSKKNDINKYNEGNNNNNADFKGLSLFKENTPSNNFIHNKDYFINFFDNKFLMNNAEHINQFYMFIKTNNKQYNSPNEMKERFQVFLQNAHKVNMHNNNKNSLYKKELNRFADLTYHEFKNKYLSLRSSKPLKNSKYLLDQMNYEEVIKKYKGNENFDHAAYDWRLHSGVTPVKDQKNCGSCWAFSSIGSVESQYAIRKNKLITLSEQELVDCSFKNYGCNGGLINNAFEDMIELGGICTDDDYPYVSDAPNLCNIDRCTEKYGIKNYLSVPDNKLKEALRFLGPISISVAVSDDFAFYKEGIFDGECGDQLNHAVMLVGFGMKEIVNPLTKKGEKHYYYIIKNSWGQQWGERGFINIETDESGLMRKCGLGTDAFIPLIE

UniProt Q8IAR6 = target: UniProt Q8IAR6
UniProt Q8IB73 = target: UniProt Q8IB73
UniProt Q8IDV2 = target: UniProt Q8IDV2
UniProt Q8IE20 = target: UniProt Q8IE20
UniProt Q8IE22 = target: UniProt Q8IE22
UniProt Q8IE81 = target: UniProt Q8IE81
UniProt Q8II42 = target: UniProt Q8II42
UniProt Q8II43 = target: UniProt Q8II43
UniProt Q8IIV8 = target: UniProt Q8IIV8
UniProt Q8IJJ0 = target: UniProt Q8IJJ0
UniProt Q8IJT9 = target: UniProt Q8IJT9
UniProt Q8IKA0 = target: UniProt Q8IKA0
UniProt Q8IKF0 = target: UniProt Q8IKF0
UniProt Q8IKK7 = target: UniProt Q8IKK7
UniProt Q8IKQ7 = target: UniProt Q8IKQ7
UniProt Q8IKR1 = target: UniProt Q8IKR1
UniProt Q8IKZ6 = target: UniProt Q8IKZ6
UniProt Q8IL22 = target: UniProt Q8IL22
UniProt Q8ILI6 = target: UniProt Q8ILI6
Chain of UniProt Q8ILI6 (Q8ILI6 whole entry): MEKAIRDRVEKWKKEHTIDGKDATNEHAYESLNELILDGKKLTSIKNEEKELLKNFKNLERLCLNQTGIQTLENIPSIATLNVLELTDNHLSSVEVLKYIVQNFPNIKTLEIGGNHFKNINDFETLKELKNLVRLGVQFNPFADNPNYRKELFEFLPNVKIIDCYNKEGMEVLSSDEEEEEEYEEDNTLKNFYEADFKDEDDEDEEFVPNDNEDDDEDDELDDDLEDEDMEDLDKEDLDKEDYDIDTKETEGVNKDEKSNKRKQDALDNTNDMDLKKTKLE

Measured: IC50
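Also: native unpurified kinases from lysate captured on beads bearing immobilized kinase inhibitors, with bead-bound kinases quantified by mass spectrometry across compound doses.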

Chain of UniProt C0H4V6 (C0H4V6 whole entry): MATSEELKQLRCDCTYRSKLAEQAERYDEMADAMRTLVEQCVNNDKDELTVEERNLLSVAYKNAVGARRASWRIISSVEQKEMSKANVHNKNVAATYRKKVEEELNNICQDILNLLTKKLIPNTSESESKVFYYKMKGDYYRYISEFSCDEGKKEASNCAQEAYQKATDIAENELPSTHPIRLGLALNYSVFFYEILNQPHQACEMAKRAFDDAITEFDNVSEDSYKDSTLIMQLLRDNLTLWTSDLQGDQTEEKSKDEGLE
Chain of UniProt P27362 (P27362 whole entry): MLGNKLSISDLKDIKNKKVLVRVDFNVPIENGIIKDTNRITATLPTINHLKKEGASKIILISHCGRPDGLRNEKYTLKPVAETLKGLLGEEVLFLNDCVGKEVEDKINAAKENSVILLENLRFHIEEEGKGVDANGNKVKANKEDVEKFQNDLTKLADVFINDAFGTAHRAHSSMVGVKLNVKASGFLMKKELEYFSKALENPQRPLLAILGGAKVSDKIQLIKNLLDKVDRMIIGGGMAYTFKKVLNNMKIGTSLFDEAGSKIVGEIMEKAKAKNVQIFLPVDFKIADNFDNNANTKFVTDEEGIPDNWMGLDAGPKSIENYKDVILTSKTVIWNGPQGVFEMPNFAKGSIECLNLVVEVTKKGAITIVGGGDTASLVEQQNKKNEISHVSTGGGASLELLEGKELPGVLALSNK

O=c1[nH]c2ccc(Cl)cc2c(NC2CN3CCC2CC3)c1-c1nc2ccccc2[nH]1 (stereo not drawn) [CHIR-124]
> 20 µM: all assays above
